The record followed here is US20130344501A1, “METHODS FOR PRODUCING THREE-DIMENSIONAL PHYSIOLOGICALLY RELEVANT IMMUNE TISSUE SYSTEMS UNDER LOW FLUID SHEAR CONDITIONS” (priority 2010, published 2013).

One series relates to U937 cells. Nature of the series: Cell viability of U937 monocytes cultured alone (with or without microcarrier beads) after exposure to 3-oxo-C12 HSL, flow cytometry. It is filed as cell-based, human. Conditions: for Percentage viability, U937: U937 cells exposed alone, mean ± SD, N=3; for Percentage viability, U937 / Percentage viability, U937 + beads: 20 hour exposure; for Percentage viability, U937 + beads: U937 in the presence of microcarrier beads. As for the experimental part: Assessment of live-, apoptotic-, and necrotic cell populations was performed with the annexin V-propidium iodide (PI) kit for flow cytometry analysis (ImmunoSource) according to the manufacturer's instructions.
Stained cell suspensions were analyzed with an EPICS XL flow cytometer (Beckman-Coulter) or a Cytomics FC 500 system (Beckman-Coulter), equipped with an argon laser and filters for adequate excitation of the chosen fluorophores. Forward scatter, side scatter, FITC-, PI and PE-Cy5 emissions were measured and a total of 10,000 cells were recorded for each sample. The respective cell populations were delimited to eliminate background signals originating from cell debris. To assess background fluorescent signals from the tested cell populations, non-stained samples were included.
After 72 hours of co-cultivation, aggregates containing 2×10^6 cells were seeded into 6-well plates containing fresh medium (5 ml total volume). Subsequently, aggregates were spiked with 5, 10 or 100 μM 3-oxo-C12 HSL (Sigma-Aldrich) (starting from a 20 mM stock solution in DMSO, stored at −20° C.). Equal volumes of DMSO, containing the respective amounts of 3-oxo-C12 HSL, were added to each well (25 μl) and a solvent control (25 μl DMSO) was included in each experiment. Six-well plates were placed at 37° C. in a 5% CO2 environment and incubated for 20 hours. For exposure assays of monocytes to 3-oxo-C12 HSL, 2×10^6 U937 cells/well were transferred in 6-well plates. To assess the influence of 3-oxo-C12 HSL on monocytes cultured on microcarrier beads, collagen I-coated beads were added to the cells at the same concentration as for seeding three-dimensional cultures (1 bead per 2500 cells). Subsequently, monocyte cultures (with or without microcarrier beads) were spiked with 3-oxo-C12 HSL (see above). A solvent control was included. […] Cell viability was assayed with trypan blue (0.4%) (Sigma) and/or with the annexin V-PI kit (ImmunoSource) (see above). […] FIG. 9B are examples of the three-dimensional A549-U937 co-culture model exposed to 100 μM 3-oxo-C12 HSL and to the solvent control DMSO. The presented cell population is gated for CD45 positive cells and thus only includes monocytes/macrophages. For FIGS. 9A-B, “I” represents the percentage of dead cells, while “H” is the viable cell population. Consequently, cell viability was further assessed based on the shift in forward scatter signal (see Table 1).
On the technique in general: In flow cytometry, cells or beads pass a laser one at a time.

The next series has as its system U937 cultures. It is filed as in vitro ADME, human. The settings on record: compared to three-dimensional A549 and A549-U937 cultures. The method, then: (§1) Following exposure of three-dimensional cultures and monocytes to 3-oxo-C12 HSL, cell-free samples were taken and stored at −20° C. at indicated time points. The remaining 3-oxo-C12 HSL concentration was assessed as previously described (Crabbé et al., 2008) using the indicator strain E. coli harboring the reporter plasmid pUCP22NotI-PlasB::gfp(ASV)Plac::lasR (Hentzer et al., 2002). A 3-oxo-C12 HSL standard series was included ranging from 1.63 to 100 μM. Culture medium containing microcarrier beads was used as a control to normalize for bioadsorption.

Series [1] deals with three-dimensional A549 and three-dimensional A549-U937 cultures. It is filed as in vitro ADME, human. Conditions: original concentration 100 μM. As for the experimental part: as §1
The test system of series [2] is ICAM-1 expression of A549 cells (derived from the three-dimensional A549-U937 co-culture). Nature of the series: ICAM-1 expression of A549 cells from the three-dimensional A549-U937 co-culture exposed to 3-oxo-C12 HSL, flow cytometry. It is filed as cell-based, human. From the text:
Mouse anti-human CD45 (Invitrogen) and ICAM-1 (Invitrogen) conjugated with phycoerythrin (PE)-Cy5 and FITC respectively were used for flow cytometry staining. Sample preparation and fluorescent staining of cells. Cells were rinsed 2 times with pre-warmed HBSS (Invitrogen), detached from microcarrier beads/culture flasks with 0.25% trypsin-EDTA (Invitrogen) and counted using a hemocytometer. For inclusion of cells detached from the microcarrier beads (three-dimensional A549 and three-dimensional A549-U937 co-cultures) in the frame of QS exposure studies (see below), whole cultures (both aggregates and bulk liquid) were centrifuged at 1200 rpm for 6 min for each washing step. […]
Stained cell suspensions were analyzed with an EPICS XL flow cytometer (Beckman-Coulter) or a Cytomics FC 500 system (Beckman-Coulter), equipped with an argon laser and filters for adequate excitation of the chosen fluorophores. Forward scatter, side scatter, FITC-, PI and PE-Cy5 emissions were measured and a total of 10,000 cells were recorded for each sample. […]
After 72 hours of co-cultivation, aggregates containing 2×10^6 cells were seeded into 6-well plates containing fresh medium (5 ml total volume). […] Consequently, cell viability was further assessed based on the shift in forward scatter signal (see Table 1).

Take `CCCCCCCCCC(=O)CC(=O)N[C@H]1CCOC1=O` [3-oxo-C12 HSL, N-(3-oxododecanoyl)-Lhomoserine lactone]: the “loss of viability of pure cultures of U937 cells” value in the series on U937 cells (100 μM, after 2 hours of exposure) is given as “started to show significant loss of viability”. For the same molecule, the “viability of pure cultures of U937 cells” value with U937 cells (100 μM, after 5 hours of exposure) came to 50%. Further, the figures for the “Percentage viability, U937” value in the series with U937 cells (5 μM) and in the series with U937 cells (10 μM) were 82.8 ± 0.2% and 75.6 ± 0.6%, respectively. Moreover, the “Percentage viability, U937 + beads” value in the series with U937 cells (5 μM) was determined as 89.1 ± 1.4%; in the series with U937 cells (10 μM) it was 90.9 ± 0.4%; in the series with U937 cells (100 μM) it was 5.3 ± 0.4%. For the same molecule, in the series on U937 cells (lower concentrations, 5 μM and 10 μM), the “monocyte cell viability” value is given as “did not induce significant differences”. In the series on U937 cultures, the “change of 3-oxo-C12 HSL concentration over time” value is recorded as “minimal differences in 3-oxo-C12 HSL concentration over time”. Moreover, the “remaining fraction of the original 3-oxo-C12 HSL concentration” value in series [1] (after 2 hours of exposure) is listed as 30%. Besides, in series [1] (after 20 hours of exposure), the “residual 3-oxo-C12 HSL” value was “no residual 3-oxo-C12 HSL could be detected”. Moreover, the “ICAM-1 expression increase compared to the solvent control” value in series [2] (100 μM, 20 hours, p<0.01, mean ± SD, N=3) is reported as 1.66±0.11 fold. Moreover, the “ICAM-1 expression” value in series [2] (lower concentrations of the QS molecule) is recorded as “did not affect ICAM-1 expression”.
